From patent publication EP0456257A1, “Silver halide color photographic material” (FUJI PHOTO FILM CO., LTD., priority 1990, dated 1991)

Test: Spectral absorption of yellow-colored coupler in methanol
Assay type: physicochemical
Description: The melting point of the compound was 269 to 272" C (decomposition). The structure of the compound was confirmed by H-NMR spectrum, mass spectrum and elementary analysis.
75 ml of methyl cellosolve and 26 ml of water were added to 10.1 g of Compound b (prepared as in Synthesis Example 1) and 10.7 g of sodium acetate. The diazonium solution was then added to the system with stirring under cooling with ice. After the dropwise addition was completed, the system was further stirred for 1 hour under ice-cooling and then for 2 hours at room temperature. The resulting crystal was filtered off. The crystal was then dispersed in 200 ml of methanol. A solution of 2.2 g of sodium hydroxide in 10 ml of water was added dropwise to the dispersion. The material was stirred for 3 hours. The system was neutralized with concentrated hydrochloric acid. The resulting crystal was washed with water and then with methanol, and then dried. The resulting crude crystal was purified with heat methanol in the same manner as in Synthesis Example 1 to obtain 14.8 g of Exemplary Coupler (YC-3). The melting point of the compound was 246 to 251 ° C (decomposition). The structure of the compound was confirmed by 'H-NMR spectrum, mass spectrum and elementary analysis.
13.0 g of Compound g prepared by the synthesis method as described in U.S. Patent 4,138,258 was dissolved in 40 ml of N,N-dimethylformamide. […]

For `CCCCCCCCC(CCCCCC)COCCCNC(=O)c1cc(OCCOc2ccc(N=Nc3c(C)c(C#N)c(=O)n(-c4ccccc4C(=O)O)c3O)cc2)c2ccccc2c1O` (centres unmarked) [YC-30], the maximum absorption wavelength was 458.2 nm and the molecular extinction coefficient was 42,800.
